Measurements taken from a melting point compilation (Tetko et al.; mined from patent text by program, amines drawn as free bases though some values may be those of a salt).

Structure (SMILES) | melting point
OCC1OC(n2c(Br)nc3cc(Cl)c(Cl)cc32)C(O)C1O (stereo unspecified) | 169 °C
Cc1cc([N+](=O)[O-])cc(C(=O)Nc2nnn[nH]2)n1 | > 300 °C
CC(=O)Oc1ccc2ccc(=O)oc2c1CC(Br)CBr (stereo unspecified) | 123 to 124 °C
CNC(=C[N+](=O)[O-])NCCSCc1cc(OC)ccn1 | 107 to 108 °C
CCn1c(=O)oc2ccc(Cl)cc21 | 75 to 78 °C
C[C@H](C(=O)O)n1ncn(-c2ccc(OCC(F)(F)C(F)F)cc2)c1=O | 162 to 165 °C
COC(=O)Cc1c(F)cc(O)cc1F | 75.5 to 77.5 °C
Cc1c(CO)c(CO)c2n1-c1ccccc1C2 | 123 to 125 °C
CCCCCNc1cccc2c1C(=O)N(C1(C)CCC(=O)NC1=O)C2=O (stereo unspecified) | 96 to 98 °C
Cn1cc(C2=C(c3c4n(c5ccccc35)CCC(CNC(=O)OC(C)(C)C)C4)C(=O)N(O)C2=O)c2ccccc21 (stereo unspecified) | 238 to 240 °C
C[C@@H](C(O)=S)c1cc(C(C)(C)C)c(O)c(C(C)(C)C)c1 | 111 to 112 °C
C=CCCCCCCOc1ccc(CCC(NC(C)=O)(C(=O)OCC)C(=O)OCC)cc1 | 50 to 53 °C
CC(C)CNC(=S)Nc1cc(Cl)cc(Cl)c1 | 144 °C
O=C(O)c1cccc(-c2ccc(OC[C@H](O)CCc3cccnc3)cc2)c1 | 165 to 168 °C
CNC(=O)OC(Cn1ccnc1)c1ccc(Cl)cc1Cl (stereo unspecified) | 106 to 108 °C
COc1ccc(CNC(=S)NNC(=O)C(N)=O)cc1 | 185 to 190 °C
COC(=O)C(Cc1ccc([N+](=O)[O-])c(OCc2ccccc2)c1)NC(=O)OC(C)(C)C (stereo unspecified) | 104 to 105 °C
N#CCOc1ccc(-c2ccc(=O)n(Cc3ccc(Cl)cc3F)c2)cc1 | 160 °C
CC1(C=O)CC1(c1ccc(F)cc1)c1ccc(F)cc1 (stereo unspecified) | 110 to 113 °C
CC(=O)N1CCC(OCCOc2ccc(C(N)=O)cc2)CC1 | 154 to 155 °C
O=C(O)c1ccc(C(F)(F)C(F)(F)F)cc1[N+](=O)[O-] | 124 to 135 °C
COC(=O)c1ccc(Cl)c(N)c1Cl | 50 to 52 °C
CCCN(CC1CC1)C(=O)c1c2c(nn1C)N(c1c(C)cc(C)cc1Cl)CCC2 | 121 to 122 °C
C[C@]1(CN2CCN(C(=O)OCc3ccc(OC(F)(F)F)cc3)CC2)Cn2cc([N+](=O)[O-])nc2O1 | 140 °C

Structure (SMILES) | melting point
CCc1cccc(CC)c1N(C=O)CC(=O)O | 139 to 141 °C
Fc1cccc(Cl)c1COc1cc(Cl)cnc1NC(=S)Nc1ccc(Cl)cc1 | 158 to 160 °C
O=C1CCCC(=O)N1c1cc(Br)cc(Br)c1 | 152 to 154 °C
NC1=C(C(=O)c2cccs2)C2=C(CCC2)S1=O (stereo unspecified) | 133 to 134 °C
O=S1(=O)N=CN(C2CCCCC2)c2cc(Cl)c(Cl)cc21 | 219 to 222 °C
CN(C)C1(c2ccc(F)cc2)CCC(=O)CC1 | 128 to 133 °C
O=C1[C@H]2CCC[C@H]2N(C(=O)CCCCCBr)c2ccccc2N1Cc1ccccc1 (relative stereo) | 111 to 112 °C
NC1=NC(c2cccc(Oc3ccccc3)c2)N(c2cccc(Cc3ccccc3)c2)C(N)=N1 (stereo unspecified) | 165 to 167 °C
CCOCc1nc2c(N)nc3cc(OCCCN4CCCC4=O)ccc3c2n1CCCCNS(C)(=O)=O | 157 °C
CCc1nc(-c2cnccn2)no1 | 52 to 57 °C
CC(=O)C(O)C1OC(Sc2ncc(Cl)cn2)C(O)(C(C)=O)C(O)(C(C)=O)C1(O)C(C)=O (stereo unspecified) | 172 °C
O=C(c1cccs1)c1cnn2c(-c3cccc(NCc4ccoc4)c3)ccnc12 | 140 to 144 °C
CC(C)c1ccc(C(O)C(=O)O)cc1 (stereo unspecified) | 156 to 157 °C
CCOC(=O)c1c(CN2CCCCC2)nc2cc(OC)c(OC)cc2c1-c1ccc(OC)cc1 | 129 to 130 °C
COC(C)c1ccc(C(=O)O)cc1 (single isomer, unassigned; (+)) | 99 to 102 °C
Cc1cccc(N2CCNC2=O)c1 | 137 to 138 °C
O=CNCC(O)(Cn1cncn1)c1ccc(Cl)cc1Cl (stereo unspecified) | 157 °C
Brc1cc(Br)c(OC2C=CCC2)c(I)c1 (stereo unspecified) | 57 to 58 °C
Brc1ccc2cc(SN3CCN(c4ccncc4)CC3)ccc2c1 | 200 to 202 °C
CCOC(=O)COc1cc2cc(C(O)CC)sc2c(Cl)c1Cl (stereo unspecified) | 69 to 70 °C
CCOC(=O)c1cn(CC)c2nc(C)ccc2c1=O | 122 to 123 °C
O=[N+]([O-])C=C1CN=C(c2ccccc2Cl)c2cc(Cl)ccc2N1 | 182 to 185 °C
CC(CCC(=O)O)C(=O)N1c2ccccc2CCC1C(=O)O (stereo unspecified) | 117 to 119 °C
COC(=O)c1ccc(NC(=O)NCc2cccc(OC(C)=O)c2)cc1Cl | 113 to 114 °C

Structure (SMILES) | melting point
Cc1ccc(-c2nc(CCCCCCOC(C)(C)c3nnn[nH]3)c(C)o2)cc1 | 87 °C
NC(=O)c1cc(OC(F)(F)F)ccc1O | 188 to 190 °C
Cn1c(=O)c2c(O)nccc2n(C)c1=O | > 300 °C
Fc1ccccc1C1=CCc2nnc(-c3ccncc3)n2-c2ccc(Cl)cc21 | 198 to 200 °C
O=C(CCCCCNC(=O)OCc1ccccc1)NCCc1ccc(O)cc1 | 108 °C
CC(C)(COc1ccc2ncnn2n1)CS(N)(=O)=O | 181 to 184 °C
N#CCCN1CCCCC1=Nc1ccccc1N1CCOCC1 | 148 °C
O=[N+]([O-])c1ccc(I)c(C(F)(F)F)c1 | 81 to 82 °C
CCOC(=O)c1cn(CC)c2nc(N3CCN(Cc4ccc(Cl)cc4)CC3)ncc2c1=O | 150 °C
CCCN(Cc1ccc(-c2ccccc2-c2nnn[nH]2)cc1)c1nc(C)nnc1C(=O)OCC | 120 to 122 °C
COc1cc2c(cc1OC)C(C(COC(=O)Nc1ccccc1)COC(=O)Nc1ccccc1)N(Cc1ccccc1)CC2 (stereo unspecified) | 185 °C
N#CCCSC1C2=C(CCCC2)C(=O)N1c1ccc(Cl)cc1F (stereo unspecified) | 101 to 103 °C
CN(CCN(C)C1=C(O)C(=O)c2ccccc2C1=O)Cc1ccccc1 | 121 to 123 °C
NC(=C[N+](=O)[O-])NC1CCCC1 | 117 to 124 °C
CCCc1c(COc2ccc3c(=O)cc(C(=O)O)oc3c2CCC)ccc(C(C)=O)c1O | 195 to 205 °C
CC(=O)N1CCSc2cccc(C)c2C1 | 71 to 73 °C
CC(C)(CO)NS(=O)(=O)c1cnc(NC(=O)c2cnn3c(C(F)(F)F)cc(-c4ccc(C(F)(F)F)cc4)nc23)s1 | 292 °C
CCC(=O)Nc1c(C(=O)c2cc(CO)co2)[nH]c2cc(Cl)ccc12 | 171 to 172 °C
CC12CCC(C(=O)O)=CC1=CCc1cc(Cl)ccc12 (single isomer, unassigned; (-)) | 228 to 230 °C
CC(O)(Cc1ccc(C#N)cc1)Cc1ccc(C#N)cc1 | 147 to 148 °C
CCOC(=O)NNC(=O)NC1c2ccccc2Oc2ccccc21 | 188 to 191 °C
CCOC(=O)Cn1c(=O)c2cc(F)c(-c3ncc[nH]3)cc2n(Cc2ccc(Cl)cc2Cl)c1=O | 192 to 193 °C

Second part, the compound after the results:

melting point | Structure (SMILES)
160 °C | CC(C)SC1=C(C#N)C(c2ccccc2)(c2ccccc2)C(=O)N1
164 to 166 °C | CC1(C)Cc2ccc(C#N)cc2N(C(=O)Nc2cccnc2)C1
75 to 76 °C | CCN(CC)C(C#N)c1ccc(OCc2ccccc2)cc1 (stereo unspecified)
152 to 155 °C | CCOc1c(C)c(N2CCN(c3ccc(C)cc3)CC2)c(C)c2c1OC(C)(C)C2
75.5 to 76.5 °C | CCc1ccc(-c2nc(Cl)c3ccccc3n2)cc1
139 to 141 °C | Cc1cc(C)n(Cc2ccc(Cl)c(Cl)c2)c(=O)c1C#N
180 °C | N#Cc1cnn2c(C(F)(F)F)cc(-c3ccc(Cl)cc3Cl)nc12
148 to 150 °C | Cc1ncoc1C(=O)Nc1ccc(-n2nc(C(F)(F)F)cc2C2CC2)c(F)c1
143 to 144 °C | COc1ccc2c(ccn2CC2(c3ccccc3Br)OCCO2)n1
136 °C | Cc1cc2c(cc1C#N)OCC(C)(C)C=C2c1ccccn1
175 to 176 °C | Cc1cccc(-c2csc(N3CCN(C(=O)Nc4onc(C)c4C)CC3)n2)c1
140 to 142 °C | CCN(CC)CCNC(=O)c1cccc2nc3cc(I)ccc3nc12
131 to 134 °C | COc1cc2c(c3c1OC(C)(C)C3)C(c1cccc(N)c1)=NC(C)(C)C2
125 to 127 °C | COc1ccc(-n2cnc3ccc(-c4nnc(CCc5cccc(C#N)c5)o4)cc32)cc1
258 to 259 °C | O=C(c1ccccc1)c1c(O)c2cc(Cl)cc(Cl)c2[nH]c1=O
120 to 122 °C | Cc1ncc(C#N)c(Cl)c1I

melting point | Structure (SMILES)
111 to 112 °C | COc1ccc(C(=O)N2CCN(Cc3ccccc3)c3ccccc32)cc1OC
> 250 °C | CS(=O)(=O)Nc1cc2occ(C(=O)Nc3nnn[nH]3)c(=O)c2cc1Oc1ccccc1
206 °C | NC(=O)c1sc2ccc(OCc3ccccc3)cc2c1Cl
150 to 152 °C | COCCOc1ccnc2c(NC(=O)c3c(Cl)cccc3Cl)cccc12
129 to 130 °C | Cc1nn(-c2ccccn2)cc1COc1ccc(CCC(=O)O)cc1
207 to 208 °C | CC(C)n1nc(-c2cc(Cl)c(N)nc2-c2ccccc2)ccc1=O
234 to 235 °C | Cc1cc(C)c2nc(C)c(NC(=O)Nc3ccc(F)cc3F)c(-c3ccccc3Cl)c2c1
133 to 138 °C | O=c1c(Cc2ccccc2)c(-c2ccccc2)oc2cc(OCC3CO3)ccc12 (stereo unspecified)
152 to 154 °C | O=c1oc(OCc2ccccc2)nc2ccccc12
203 to 204 °C | CC1(C)CCC(C)(C)c2cc(C(O)C#Cc3ccc(C(=O)O)c(O)c3)ccc21 (stereo unspecified)
149 to 150 °C | CN(c1cccc2cc(C3=NCC(CC(N)=O)S3)[nH]c12)S(=O)(=O)c1ccccn1 (stereo unspecified)
141 to 143 °C | CCN(CC)c1c(C(=O)O)n(-c2ccccc2)c2ccc(OC)cc12
170 to 173 °C | Cc1noc2cc3c(cc12)C1(CO3)C(=O)N(Cc2cnccn2)c2ccccc21 (stereo unspecified)
228 to 230 °C | O=C1N(Cc2ccccn2)c2cccc(-c3cnc4ccccc4c3)c2C12COc1cc3c(cc12)OCCO3 (stereo unspecified)
192 to 194 °C | O=c1nc(NCc2ccccc2)sc2c([N+](=O)[O-])cc(C(F)(F)F)cc12
